In ChEMBL document CHEMBL5465560, “Selectivity Literature for EUbOPEN Chemogenomic Library” (2024):

Experiments:
[1] = target: Casein kinase II subunit alpha (Homo sapiens, UniProt P68400); experiment: Selectivity interaction (Kinase panel (literature)) EUB0001199aCl CSNK2A1; details: at 1 µM
Ephrin type-A receptor 4 = Ephrin type-A receptor 4 (Homo sapiens, UniProt P54764); experiment: Selectivity interaction (Ambit KINOMEscan and KiNATiv profiling in Jurkat cells) EUB0000090b EPHA4; assay type: cell-based; details: at 1 µM
Sequence of Ephrin type-A receptor 4 (P54764 whole entry): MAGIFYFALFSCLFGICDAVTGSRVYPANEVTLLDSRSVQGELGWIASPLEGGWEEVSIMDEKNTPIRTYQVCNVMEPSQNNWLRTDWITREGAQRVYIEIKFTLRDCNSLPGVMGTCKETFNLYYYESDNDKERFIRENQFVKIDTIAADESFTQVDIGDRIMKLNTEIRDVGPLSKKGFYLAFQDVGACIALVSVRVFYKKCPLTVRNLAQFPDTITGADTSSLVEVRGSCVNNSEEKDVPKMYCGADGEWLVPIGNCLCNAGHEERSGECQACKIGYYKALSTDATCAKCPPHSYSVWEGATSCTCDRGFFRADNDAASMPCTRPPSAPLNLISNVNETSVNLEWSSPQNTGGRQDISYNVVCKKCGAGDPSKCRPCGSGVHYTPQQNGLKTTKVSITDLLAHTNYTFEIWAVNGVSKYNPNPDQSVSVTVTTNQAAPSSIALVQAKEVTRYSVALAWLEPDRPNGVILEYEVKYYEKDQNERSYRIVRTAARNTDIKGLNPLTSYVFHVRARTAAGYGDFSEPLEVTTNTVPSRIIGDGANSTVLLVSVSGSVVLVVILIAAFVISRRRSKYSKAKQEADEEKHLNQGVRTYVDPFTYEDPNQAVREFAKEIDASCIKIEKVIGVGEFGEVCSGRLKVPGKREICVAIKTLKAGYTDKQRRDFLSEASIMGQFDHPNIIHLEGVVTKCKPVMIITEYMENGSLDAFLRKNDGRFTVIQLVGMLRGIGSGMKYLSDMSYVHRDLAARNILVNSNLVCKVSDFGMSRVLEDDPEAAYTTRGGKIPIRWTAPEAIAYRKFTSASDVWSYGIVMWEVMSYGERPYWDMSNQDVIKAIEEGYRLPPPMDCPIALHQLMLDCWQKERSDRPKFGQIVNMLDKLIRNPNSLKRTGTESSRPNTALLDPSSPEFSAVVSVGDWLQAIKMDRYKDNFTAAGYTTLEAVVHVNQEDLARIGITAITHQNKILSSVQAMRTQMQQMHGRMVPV

Nav1.5 (SCN5A) = Nav1.5 (SCN5A) (Homo sapiens, UniProt Q14524); experiment: Selectivity interaction (Panel of kinases, GPCRs, ion channels and transporters (enzymatic assay)) EUB0000223bCl SCN5A
Sequence of Nav1.5 (SCN5A) (Q14524 whole entry): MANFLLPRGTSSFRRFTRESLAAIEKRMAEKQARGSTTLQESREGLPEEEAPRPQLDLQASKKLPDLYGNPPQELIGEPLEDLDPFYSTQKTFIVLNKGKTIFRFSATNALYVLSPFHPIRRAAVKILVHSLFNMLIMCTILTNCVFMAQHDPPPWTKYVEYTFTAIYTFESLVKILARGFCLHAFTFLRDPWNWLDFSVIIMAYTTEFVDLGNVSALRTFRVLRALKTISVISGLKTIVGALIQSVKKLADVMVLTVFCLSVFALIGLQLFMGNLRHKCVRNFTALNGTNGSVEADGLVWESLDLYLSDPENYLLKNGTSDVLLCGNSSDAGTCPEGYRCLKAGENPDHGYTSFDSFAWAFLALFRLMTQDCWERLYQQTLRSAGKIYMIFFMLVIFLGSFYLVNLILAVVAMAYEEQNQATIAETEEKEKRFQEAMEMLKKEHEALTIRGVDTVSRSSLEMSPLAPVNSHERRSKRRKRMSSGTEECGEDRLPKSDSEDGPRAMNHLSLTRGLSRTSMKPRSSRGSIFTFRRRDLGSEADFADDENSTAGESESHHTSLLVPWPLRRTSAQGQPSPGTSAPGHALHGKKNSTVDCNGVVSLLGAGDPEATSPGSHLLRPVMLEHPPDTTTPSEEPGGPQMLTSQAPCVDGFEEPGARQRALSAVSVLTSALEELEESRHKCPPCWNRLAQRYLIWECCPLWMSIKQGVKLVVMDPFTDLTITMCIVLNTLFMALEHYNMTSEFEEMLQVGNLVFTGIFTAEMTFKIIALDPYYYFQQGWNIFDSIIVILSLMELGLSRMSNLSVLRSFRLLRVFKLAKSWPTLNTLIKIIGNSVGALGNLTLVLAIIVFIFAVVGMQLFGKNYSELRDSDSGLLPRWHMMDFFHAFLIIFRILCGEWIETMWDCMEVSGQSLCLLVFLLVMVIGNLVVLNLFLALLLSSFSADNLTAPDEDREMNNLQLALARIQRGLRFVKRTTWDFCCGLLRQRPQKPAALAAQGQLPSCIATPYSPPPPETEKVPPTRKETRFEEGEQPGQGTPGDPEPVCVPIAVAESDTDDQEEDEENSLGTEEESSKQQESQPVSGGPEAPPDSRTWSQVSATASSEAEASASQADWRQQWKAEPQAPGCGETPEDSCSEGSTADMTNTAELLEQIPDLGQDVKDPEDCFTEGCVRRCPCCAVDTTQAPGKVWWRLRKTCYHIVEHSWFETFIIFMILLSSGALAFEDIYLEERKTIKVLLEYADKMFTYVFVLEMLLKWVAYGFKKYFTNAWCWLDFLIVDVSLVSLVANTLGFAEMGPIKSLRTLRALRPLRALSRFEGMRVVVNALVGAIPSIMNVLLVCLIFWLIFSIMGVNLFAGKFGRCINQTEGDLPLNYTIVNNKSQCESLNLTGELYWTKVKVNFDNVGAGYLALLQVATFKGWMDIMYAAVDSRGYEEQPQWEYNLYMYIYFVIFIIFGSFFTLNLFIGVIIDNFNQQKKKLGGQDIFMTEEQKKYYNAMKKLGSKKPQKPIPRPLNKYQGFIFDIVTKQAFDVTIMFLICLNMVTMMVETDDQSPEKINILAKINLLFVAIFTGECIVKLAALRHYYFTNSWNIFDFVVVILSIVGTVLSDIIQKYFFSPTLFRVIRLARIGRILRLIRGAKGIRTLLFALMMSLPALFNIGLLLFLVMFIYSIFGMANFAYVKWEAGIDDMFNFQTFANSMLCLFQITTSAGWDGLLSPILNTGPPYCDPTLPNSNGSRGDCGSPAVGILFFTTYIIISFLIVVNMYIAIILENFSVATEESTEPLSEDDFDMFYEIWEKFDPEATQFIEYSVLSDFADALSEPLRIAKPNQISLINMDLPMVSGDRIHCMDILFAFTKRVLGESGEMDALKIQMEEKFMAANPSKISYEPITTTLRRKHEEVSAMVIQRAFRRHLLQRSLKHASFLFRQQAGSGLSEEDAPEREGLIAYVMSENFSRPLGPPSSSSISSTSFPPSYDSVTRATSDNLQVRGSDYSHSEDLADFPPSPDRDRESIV

[2] = target: T1, Rhodopsin kinase GRK1 (Homo sapiens) (UniProt Q15835); experiment: Selectivity interaction (KinomeScan (DiscoverX)) EUB0000655a GRK1; details: at 10 µM
T1 sequence (whole entry): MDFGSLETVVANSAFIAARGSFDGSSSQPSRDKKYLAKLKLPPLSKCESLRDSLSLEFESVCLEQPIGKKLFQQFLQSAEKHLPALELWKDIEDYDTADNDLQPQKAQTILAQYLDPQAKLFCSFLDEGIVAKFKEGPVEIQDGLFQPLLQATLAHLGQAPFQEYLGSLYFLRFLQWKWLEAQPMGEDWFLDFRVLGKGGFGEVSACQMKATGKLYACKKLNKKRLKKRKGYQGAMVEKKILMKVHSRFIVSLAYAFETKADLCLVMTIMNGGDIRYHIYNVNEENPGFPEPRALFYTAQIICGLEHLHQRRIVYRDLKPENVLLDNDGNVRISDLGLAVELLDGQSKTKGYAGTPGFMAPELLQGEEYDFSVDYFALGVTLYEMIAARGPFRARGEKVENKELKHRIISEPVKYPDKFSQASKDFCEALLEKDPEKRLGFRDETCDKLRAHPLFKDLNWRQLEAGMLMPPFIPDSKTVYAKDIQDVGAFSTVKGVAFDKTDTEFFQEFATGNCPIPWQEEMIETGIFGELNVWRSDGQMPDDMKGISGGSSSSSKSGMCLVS

[3] = target: Mitogen-activated protein kinase kinase kinase 10 (Homo sapiens) (UniProt Q02779); experiment: Selectivity interaction (KinomeScan (DiscoverX)) EUB0001079a MAP3K10; details: at 1 µM
Sequence of Mitogen-activated protein kinase kinase kinase 10 (Homo sapiens) (Q02779 whole entry, looked up): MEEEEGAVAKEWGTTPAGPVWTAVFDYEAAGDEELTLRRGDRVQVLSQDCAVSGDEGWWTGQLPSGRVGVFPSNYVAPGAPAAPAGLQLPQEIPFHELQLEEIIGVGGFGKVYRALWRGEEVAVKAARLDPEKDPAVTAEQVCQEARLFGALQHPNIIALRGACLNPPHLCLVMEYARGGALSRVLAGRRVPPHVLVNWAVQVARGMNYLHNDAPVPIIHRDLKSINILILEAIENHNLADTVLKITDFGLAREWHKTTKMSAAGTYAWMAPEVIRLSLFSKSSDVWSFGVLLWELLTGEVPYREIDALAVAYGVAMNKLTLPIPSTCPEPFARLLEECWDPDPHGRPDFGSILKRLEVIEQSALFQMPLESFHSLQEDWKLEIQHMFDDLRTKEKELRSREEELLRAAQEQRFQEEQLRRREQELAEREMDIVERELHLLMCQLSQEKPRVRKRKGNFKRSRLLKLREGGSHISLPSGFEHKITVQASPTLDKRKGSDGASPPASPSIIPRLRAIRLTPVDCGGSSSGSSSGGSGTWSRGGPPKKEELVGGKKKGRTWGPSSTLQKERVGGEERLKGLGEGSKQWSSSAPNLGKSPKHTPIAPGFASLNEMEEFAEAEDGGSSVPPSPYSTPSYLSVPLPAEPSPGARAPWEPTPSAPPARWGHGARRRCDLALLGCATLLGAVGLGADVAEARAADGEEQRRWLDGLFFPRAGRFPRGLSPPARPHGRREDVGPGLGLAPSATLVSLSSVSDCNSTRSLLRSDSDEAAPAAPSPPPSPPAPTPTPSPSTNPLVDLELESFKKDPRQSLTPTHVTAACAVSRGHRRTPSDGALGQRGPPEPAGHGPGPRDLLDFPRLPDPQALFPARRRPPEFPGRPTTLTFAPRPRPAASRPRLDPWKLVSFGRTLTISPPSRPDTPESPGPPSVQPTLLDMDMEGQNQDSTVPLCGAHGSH

[4] = target: Serine/threonine-protein kinase Nek6 (Homo sapiens) (UniProt Q9HC98); experiment: Selectivity interaction (KinomeScan (DiscoverX)) EUB0001619a NEK6; details: at 1 µM
Sequence of Serine/threonine-protein kinase Nek6 (Homo sapiens) (Q9HC98 whole entry, canonical isoform): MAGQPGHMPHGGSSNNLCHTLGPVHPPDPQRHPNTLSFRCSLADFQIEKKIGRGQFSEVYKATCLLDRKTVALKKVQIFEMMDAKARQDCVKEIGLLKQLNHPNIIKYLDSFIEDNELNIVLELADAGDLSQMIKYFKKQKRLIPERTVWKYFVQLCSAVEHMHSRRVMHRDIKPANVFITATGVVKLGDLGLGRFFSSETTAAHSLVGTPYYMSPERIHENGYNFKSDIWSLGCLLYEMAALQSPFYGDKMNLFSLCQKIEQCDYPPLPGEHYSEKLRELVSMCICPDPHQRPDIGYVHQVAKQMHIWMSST

[5] = target: T2, Phosphatidylinositol 4,5-bisphosphate 3-kinase catalytic subunit delta isoform (Homo sapiens) (UniProt O00329); experiment: Selectivity interaction (KinomeScan (DiscoverX)) EUB0001619a PIK3CD; details: at 1 µM
T2 sequence (whole entry): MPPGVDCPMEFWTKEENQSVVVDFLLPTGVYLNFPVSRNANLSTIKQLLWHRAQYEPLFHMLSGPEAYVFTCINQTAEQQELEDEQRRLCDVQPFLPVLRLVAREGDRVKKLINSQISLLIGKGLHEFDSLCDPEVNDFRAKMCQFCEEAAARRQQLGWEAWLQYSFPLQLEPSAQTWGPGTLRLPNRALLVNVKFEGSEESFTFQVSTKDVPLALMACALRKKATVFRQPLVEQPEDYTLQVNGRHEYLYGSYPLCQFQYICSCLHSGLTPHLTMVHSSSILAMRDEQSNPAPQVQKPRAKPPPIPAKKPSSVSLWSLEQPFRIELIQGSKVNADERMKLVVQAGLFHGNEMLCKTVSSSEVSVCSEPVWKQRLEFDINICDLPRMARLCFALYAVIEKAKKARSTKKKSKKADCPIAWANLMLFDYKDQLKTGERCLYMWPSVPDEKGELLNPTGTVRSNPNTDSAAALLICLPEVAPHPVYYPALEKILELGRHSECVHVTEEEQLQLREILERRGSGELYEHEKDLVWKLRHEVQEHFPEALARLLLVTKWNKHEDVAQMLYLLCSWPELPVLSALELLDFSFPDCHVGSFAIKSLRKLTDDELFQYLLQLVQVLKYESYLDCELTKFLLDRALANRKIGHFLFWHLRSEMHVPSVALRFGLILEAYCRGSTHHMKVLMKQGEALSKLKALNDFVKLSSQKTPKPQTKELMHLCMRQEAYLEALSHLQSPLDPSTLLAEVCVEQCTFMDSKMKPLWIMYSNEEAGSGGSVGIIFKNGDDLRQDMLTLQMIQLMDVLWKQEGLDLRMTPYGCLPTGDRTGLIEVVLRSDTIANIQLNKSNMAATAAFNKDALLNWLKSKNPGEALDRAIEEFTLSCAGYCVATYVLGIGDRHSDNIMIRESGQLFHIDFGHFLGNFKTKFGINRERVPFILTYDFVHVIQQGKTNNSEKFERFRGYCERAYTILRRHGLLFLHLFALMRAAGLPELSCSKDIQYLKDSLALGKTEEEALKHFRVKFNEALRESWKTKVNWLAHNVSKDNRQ

Sequence of Casein kinase II subunit alpha (P68400 whole entry, looked up): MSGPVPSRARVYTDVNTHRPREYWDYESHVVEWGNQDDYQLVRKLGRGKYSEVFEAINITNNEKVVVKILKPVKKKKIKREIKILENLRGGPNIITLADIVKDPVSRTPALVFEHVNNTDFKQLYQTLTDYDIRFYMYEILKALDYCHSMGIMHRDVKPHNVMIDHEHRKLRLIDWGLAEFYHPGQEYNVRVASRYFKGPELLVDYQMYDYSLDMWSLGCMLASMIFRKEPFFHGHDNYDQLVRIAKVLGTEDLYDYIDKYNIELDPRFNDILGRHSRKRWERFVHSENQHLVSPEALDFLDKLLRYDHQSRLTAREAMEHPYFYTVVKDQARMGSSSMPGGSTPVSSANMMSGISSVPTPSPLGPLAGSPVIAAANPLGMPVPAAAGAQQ

In the case of `CN1Cc2nccc(-c3cn(C)nc3-c3ccc(F)cc3)c2C1=O`, the % of inhibition [1] is reported as -3%.
For `CN(C)C/C=C/C(=O)Nc1ccc(C(=O)N2CCCC(Nc3ncc(Cl)c(-c4c[nH]c5ccccc45)n3)C2)cc1` (configuration not stated), the % of control (Ephrin type-A receptor 4) was 98%.
With `COc1cc(C(=O)N2CC[C@@H](O)[C@@H](N)C2)cc2nc(-c3cc4ccccc4n3CC3CC3)n(C)c12` the XC50 (Nav1.5 (SCN5A)) was 39.8 µM.
In the case of `CN(C)CCOc1ccc(-c2nc(-c3ccncc3)c(-c3ccc4c(c3)CC/C4=N\O)[nH]2)cc1`, the % of control [2] is reported as 91%.
`Nc1cnc(N2CCc3cc(S(=O)(=O)Nc4c(F)cc(Cl)cc4F)cc(N4CCCC4=O)c32)nc1` [TP-020n] gave a % of control [3] of 75%.
For `N#Cc1cccc(-c2c[nH]c3ncnc(N4CCOCC4)c23)c1`, the % of control [4] was 100% and the % of control [5] was 100%.
